Source: patent US8188059B2, “Compounds and methods for modulating expression of GCGR” (Isis Pharmaceuticals, Inc., priority 2006, dated 2012)
Strand notation (5' to 3'): a small letter for the sugar, then the base; units joined by * are phosphorothioate-linked, units joined directly phosphodiester-linked; [ ] holds rarer units or linkages, { } end groups; capitals alone tell only the bases. e = 2'-O-(2-methoxyethyl) (MOE); [5mC] = 5-methylcytosine; d = 2'-deoxy (DNA)

Experiment: Total and full-length antisense compound concentrations in liver and kidney (Example 4, Table 42)
Type: in vivo, mouse
Conditions: C57/BL6 mice; single i.p. dose; 48 h; dose not given
Protocol: Eight-week old male C57/BL6 mice (Jackson Laboratory, Bar Harbor, Me.) were administered a single dose of GCGR oligonucleotide by intraperitoneal injection at a concentration of […]. Each dose group consisted of four animals. Shown in Table 31 are the sequences, motifs and conjugates of the GCGR antisense compounds used in this study. Bolded residues indicate 2′-O-methoxyethyl (2′-MOE) moieties. All compounds comprise phosphorothioate internucleoside linkages throughout and each cytosine is replaced with 5-methylcytosine. ISIS 386626, ISIS 386627 and ISIS 386628 further comprise a C16 conjugate group attached to the 2′-O position of the sugar via a diamide linkage (2′-OCH2C(═O)N(H)(CH2)4N(H)C(═O)—(CH2)15CH3). GCGR antisense compounds target published GCGR sequences, including Genbank® Accession No. BC031885.1 (SEQ ID NO: 7).
Mice were sacrificed 48 hours following injection to determine serum transaminase levels (Table 32); liver, white adipose tissue (WAT), spleen and kidney weight (Table 33); cholesterol, triglyceride and glucose levels (Table 34); GCGR mRNA levels (Tables 35-41); and full-length and total oligonucleotide concentration in liver and kidney (Table 42). Endpoints were assessed using methods described herein and well known to those of ordinary skill in the art. Data is included from a pre-treatment bleed (Pre-Bleed) and post-treatment bleed (Post-Bleed).
Treatment with the 2-10-2 MOE gapmers led to a significant dose-dependent decrease in GCGR mRNA expression. […] To determine whether the observed increase in efficiency with the short antisense compounds is due to an increase in antisense compound accumulation, full-length and total antisense compound concentration in the liver and kidney were determined.

148364 (antisense eT*eG*e[5mC]*eA*e[5mC]*dT*dT*dT*dG*dT*dG*dG*dT*dA*d[5mC]*e[5mC]*eA*eA*eG*eG) [compound 148364]
Full-length antisense compound concentration, Kidney: 58 µg/g | Full-length antisense compound concentration, Liver: 46 µg/g | Total antisense compound concentration, Kidney: 90 µg/g | Total antisense compound concentration, Liver: 54 µg/g
